Converted amounts (≈) assume the structure as drawn.
Columns and labels:
Format in all cases: functional
[1] = tested on: Streptococcus pyogenes; experiment: Antimicrobial activity against Streptococcus pyogenes MTCC 442 assessed as growth inhibition after 24 hr by NCCLS broth microdilution method; conditions: MTCC 442, 24 h
[2] = tested on: Staphylococcus aureus; experiment: Antimicrobial activity against Staphylococcus aureus MTCC 96 assessed as growth inhibition after 24 hr by NCCLS broth microdilution method; conditions: MTCC 96, 24 h
[3] = tested on: Escherichia coli; experiment: Antimicrobial activity against Escherichia coli MTCC 443 assessed as growth inhibition after 24 hr by NCCLS broth microdilution method; conditions: MTCC 443, 24 h
[4] = tested on: Candida albicans; experiment: Antimicrobial activity against Candida albicans MTCC 227 assessed as growth inhibition after 48 hr by NCCLS broth microdilution method
[5] = tested on: Aspergillus clavatus; experiment: Antimicrobial activity against Aspergillus clavatus MTCC 1323 assessed as growth inhibition after 48 hr by NCCLS broth microdilution method
[6] = tested on: Pseudomonas aeruginosa; experiment: Antimicrobial activity against Pseudomonas aeruginosa MTCC 1688 assessed as growth inhibition after 24 hr by NCCLS broth microdilution method; conditions: MTCC 1688, 24 h
[7] = tested on: Aspergillus niger; experiment: Antimicrobial activity against Aspergillus niger MTCC 282 assessed as growth inhibition after 48 hr by NCCLS broth microdilution method

| Molecule | MIC [1] [µg/mL] | MIC [2] [µg/mL] | MIC [3] [µg/mL] | MIC ([4]; MTCC 227, 48 h) [µg/mL] | MIC ([5]; MTCC 1323, 48 h) [µg/mL] | MIC [6] [µg/mL] | MIC ([7]; MTCC 282, 48 h) [µg/mL] | MIC [4] [µg/mL] | MIC [5] [µg/mL] | MIC [7] [µg/mL] |
| --- | --- | --- | --- | --- | --- | --- | --- | --- | --- | --- |
| O=C(O)c1cn(C2CC2)c2cc(N3CCNCC3)c(F)cc2c1=O [CIPROFLOXACIN] | 50 (≈ 151 µM) | 50 (≈ 151 µM) | 25 (≈ 75.4 µM) |  |  |  |  |  |  |  |
| C=CCn1c(=O)c(C2C3=C(CC(C)(C)CC3=O)Oc3cc(C)oc(=O)c32)cc2ccccc21 (stereo not drawn) | 250 (≈ 564 µM) | 500 (≈ 1130 µM) | 100 (≈ 225 µM) | 500 (≈ 1130 µM) | 500 (≈ 1130 µM) | 62.5 (≈ 141 µM) | 500 (≈ 1130 µM) |  |  |  |
| C=CCn1c(=O)c(C2C3=C(CCCC3=O)Oc3c2c(=O)oc2ccccc32)cc2cc(C)ccc21 (stereo not drawn) | 250 (≈ 537 µM) | 250 (≈ 537 µM) | 20 (≈ 43 µM) | 250 (≈ 537 µM) | 500 (≈ 1070 µM) | 100 (≈ 215 µM) | 500 (≈ 1070 µM) |  |  |  |
| C=CCn1c(=O)c(C2C3=C(CC(C)(C)CC3=O)Oc3cc(C)oc(=O)c32)cc2cc(Cl)ccc21 (stereo not drawn) | 125 (≈ 262 µM) | 125 (≈ 262 µM) | 250 (≈ 523 µM) | 1000 (≈ 2090 µM) | > 1000 | 500 (≈ 1050 µM) | > 1000 |  |  |  |
| C=CCn1c(=O)c(C2C3=C(CCCC3=O)Oc3cc(C)oc(=O)c32)cc2cc(C)ccc21 (stereo not drawn) | 500 (≈ 1160 µM) | 500 (≈ 1160 µM) | 125 (≈ 291 µM) | 1000 (≈ 2330 µM) | 1000 (≈ 2330 µM) | 250 (≈ 582 µM) | 500 (≈ 1160 µM) |  |  |  |
| C=CCn1c(=O)c(C2C3=C(CC(C)(C)CC3=O)Oc3c2c(=O)oc2ccccc32)cc2cc(C)ccc21 (stereo not drawn) | 250 (≈ 507 µM) | 125 (≈ 253 µM) | 200 (≈ 405 µM) | 500 (≈ 1010 µM) | 500 (≈ 1010 µM) | 50 (≈ 101 µM) | 500 (≈ 1010 µM) |  |  |  |
| C=CCn1c(=O)c(C2C3=C(CCCC3=O)Oc3c2c(=O)oc2ccccc32)cc2ccccc21 (stereo not drawn) | 200 (≈ 443 µM) | 200 (≈ 443 µM) | 62.5 (≈ 138 µM) | 500 (≈ 1110 µM) | > 1000 | 100 (≈ 221 µM) | > 1000 |  |  |  |
| O=C(N[C@H](CO)[C@H](O)c1ccc([N+](=O)[O-])cc1)C(Cl)Cl [CHLORAMPHENICOL] | 50 (≈ 155 µM) | 50 (≈ 155 µM) | 50 (≈ 155 µM) |  |  | 50 (≈ 155 µM) |  |  |  |  |
| C=CCn1c(=O)c(C2C3=C(CCCC3=O)Oc3c2c(=O)oc2ccccc32)cc2cc(Cl)ccc21 (stereo not drawn) | 125 (≈ 257 µM) | 125 (≈ 257 µM) | 200 (≈ 412 µM) | 1000 (≈ 2060 µM) | 1000 (≈ 2060 µM) | 100 (≈ 206 µM) | 1000 (≈ 2060 µM) |  |  |  |
| C=CCn1c(=O)c(C2C3=C(CCCC3=O)Oc3cc(C)oc(=O)c32)cc2ccccc21 (stereo not drawn) | 250 (≈ 602 µM) | 250 (≈ 602 µM) | 125 (≈ 301 µM) | 500 (≈ 1200 µM) | 200 (≈ 481 µM) | 200 (≈ 481 µM) | 200 (≈ 481 µM) |  |  |  |
| C=CCn1c(=O)c(C2C3=C(CC(C)(C)CC3=O)Oc3cc(C)oc(=O)c32)cc2cc(OC)ccc21 (stereo not drawn) | 250 (≈ 528 µM) | 250 (≈ 528 µM) | 500 (≈ 1060 µM) | 500 (≈ 1060 µM) | 1000 (≈ 2110 µM) | 500 (≈ 1060 µM) | 1000 (≈ 2110 µM) |  |  |  |
| COC1=CC(=O)C[C@@H](C)[C@]12Oc1c(Cl)c(OC)cc(OC)c1C2=O [GRISEOFULVIN] |  |  |  | 500 (≈ 1420 µM) | 100 (≈ 283 µM) |  | 100 (≈ 283 µM) |  |  |  |
| C=CCn1c(=O)c(C2C3=C(CC(C)(C)CC3=O)Oc3cc(C)oc(=O)c32)cc2cc(C)ccc21 (stereo not drawn) | 125 (≈ 273 µM) | 250 (≈ 546 µM) | 500 (≈ 1090 µM) | 1000 (≈ 2190 µM) | 250 (≈ 546 µM) | 125 (≈ 273 µM) | 250 (≈ 546 µM) |  |  |  |
| C=CCn1c(=O)c(C2C3=C(CCCC3=O)Oc3cc(C)oc(=O)c32)cc2cc(Cl)ccc21 (stereo not drawn) | 100 (≈ 222 µM) | 100 (≈ 222 µM) | 500 (≈ 1110 µM) | 1000 (≈ 2220 µM) | 1000 (≈ 2220 µM) | 500 (≈ 1110 µM) | 500 (≈ 1110 µM) |  |  |  |
| C=CCn1c(=O)c(C2C3=C(CC(C)(C)CC3=O)Oc3c2c(=O)oc2ccccc32)cc2cc(Cl)ccc21 (stereo not drawn) | 100 (≈ 195 µM) | 62.5 (≈ 122 µM) | 100 (≈ 195 µM) | 1000 (≈ 1950 µM) | 1000 (≈ 1950 µM) | 100 (≈ 195 µM) | 1000 (≈ 1950 µM) |  |  |  |
| C=CCn1c(=O)c(C2C3=C(CC(C)(C)CC3=O)Oc3c2c(=O)oc2ccccc32)cc2ccccc21 (stereo not drawn) | 500 (≈ 1040 µM) | 250 (≈ 521 µM) | 500 (≈ 1040 µM) | 250 (≈ 521 µM) | 1000 (≈ 2090 µM) | 250 (≈ 521 µM) | 1000 (≈ 2090 µM) |  |  |  |
| NYSTATIN |  |  |  |  |  |  |  | 100 | 100 | 100 |
| C=CCn1c(=O)c(C2C3=C(CCCC3=O)Oc3cc(C)oc(=O)c32)cc2cc(OC)ccc21 (stereo not drawn) | 200 (≈ 449 µM) | 200 (≈ 449 µM) | 125 (≈ 281 µM) | 500 (≈ 1120 µM) | 1000 (≈ 2240 µM) | 250 (≈ 561 µM) | 1000 (≈ 2240 µM) |  |  |  |
| C=CCn1c(=O)c(C2C3=C(CC(C)(C)CC3=O)Oc3c2c(=O)oc2ccccc32)cc2cc(OC)ccc21 (stereo not drawn) | 125 (≈ 245 µM) | 125 (≈ 245 µM) | 250 (≈ 491 µM) | 500 (≈ 981 µM) | > 1000 | 125 (≈ 245 µM) | > 1000 |  |  |  |
| C=CCn1c(=O)c(C2C3=C(CCCC3=O)Oc3c2c(=O)oc2ccccc32)cc2cc(OC)ccc21 (stereo not drawn) | 500 (≈ 1040 µM) | 62.5 (≈ 130 µM) | 100 (≈ 208 µM) | 500 (≈ 1040 µM) | 1000 (≈ 2080 µM) | 62.5 (≈ 130 µM) | 1000 (≈ 2080 µM) |  |  |  |
| CC1(C)S[C@@H]2[C@H](NC(=O)[C@H](N)c3ccccc3)C(=O)N2[C@H]1C(=O)O [AMPICILLIN] | 100 (≈ 286 µM) | 250 (≈ 715 µM) | 100 (≈ 286 µM) |  |  |  |  |  |  |  |

From ChEMBL document CHEMBL3045441, “Microwave-assisted CAN-catalyzed solvent-free synthesis of N-allyl quinolone-based pyrano[4,3-b]chromene and benzopyrano[3,2-c]chromene derivatives and their antimicrobial activity” (2013)
